Experimental data taken from the supplement of paper PMC10307832.

How the values were obtained:
Experiment in all cases: relative viability (nuclei count vs DMSO), 5 days (fraction); higher = more cells survive
Trametinib + Tozasertib = compound: CC(=O)Nc1cccc(-n2c(=O)n(C3CC3)c(=O)c3c(Nc4ccc(I)cc4F)n(C)c(=O)c(C)c32)c1 [Trametinib] + Cc1cc(Nc2cc(N3CCN(C)CC3)nc(Sc3ccc(NC(=O)C4CC4)cc3)n2)n[nH]1 [Tozasertib] (partner 0.1 µM)
Summary of the method: (§1)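 For relative viability, nuclei counts in treated wells were divided by those in vehicle wells. Lung cancer cell lines had been pin-tool dosed in 1536-well plates the day after seeding and cultured for 5 days, then fixed and stained in one step (final 0.05% Triton X-100, 1% formaldehyde, 1 ug/ml Hoechst) and imaged at 4×. Doses were one drug alone or a fixed anchor-drug dose plus five library-drug doses (not always all listed) in √10 steps, and values are duplicate-plate medians.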

[1] = compound: CN1C=C(C2=CC=CC=C21)/C=C\3/C4=C(C=CC=N4)NC3=O + CC(C)C[C@H](NC(=O)[C@H](Cc1ccccc1)NC(=O)c1cnccn1)B(O)O [Bortezomib] (partner 0.002 µM)
Summary of the method: as §1

[2] = compound: CN1C=C(C2=CC=CC=C21)/C=C\3/C4=C(C=CC=N4)NC3=O + CS(=O)(=O)CCNCc1ccc(-c2ccc3ncnc(Nc4ccc(OCc5cccc(F)c5)c(Cl)c4)c3c2)o1 [Lapatinib] (partner 2 µM)
Summary of the method: as §1

Trametinib + AZD7762 = compound: CC(=O)Nc1cccc(-n2c(=O)n(C3CC3)c(=O)c3c(Nc4ccc(I)cc4F)n(C)c(=O)c(C)c32)c1 [Trametinib] + NC(=O)Nc1cc(-c2cccc(F)c2)sc1C(=O)N[C@H]1CCCNC1 [AZD7762] (partner 0.2 µM)
Summary of the method: as §1

Cell Line | relative viability (Trametinib + Tozasertib; first compound 0.0025 µM) | relative viability (Trametinib + Tozasertib; first compound 0.007906 µM) | relative viability (Trametinib + Tozasertib; first compound 0.025 µM) | relative viability (Trametinib + Tozasertib; first compound 0.07906 µM) | relative viability (Trametinib + Tozasertib; first compound 0.25 µM) | relative viability ([1]; first compound 0.02 µM) | relative viability ([1]; first compound 0.06325 µM) | relative viability ([1]; first compound 0.2 µM) | relative viability ([1]; first compound 0.6325 µM) | relative viability ([1]; first compound 2 µM) | relative viability ([2]; first compound 0.02 µM) | relative viability ([2]; first compound 0.06325 µM) | relative viability ([2]; first compound 0.2 µM) | relative viability ([2]; first compound 0.6325 µM) | relative viability ([2]; first compound 2 µM) | relative viability (Trametinib + AZD7762; first compound 0.0025 µM) | relative viability (Trametinib + AZD7762; first compound 0.007906 µM) | relative viability (Trametinib + AZD7762; first compound 0.025 µM) | relative viability (Trametinib + AZD7762; first compound 0.07906 µM) | relative viability (Trametinib + AZD7762; first compound 0.25 µM)
NCI-H2023 | 0.232 | 0.262 | 0.26 | 0.232 | 0.199 | 1.09 | 0.903 | 0.268 | 0.958 | 1.04 | 0.709 | 0.739 | 0.222 | 0.652 | 0.684 | – | – | – | – | –
Calu-6 | – | – | – | – | – | 0.985 | 0.923 | 0.87 | 0.946 | 1.04 | 1.15 | 1 | 1 | 0.968 | 1.01 | – | – | – | – | –
SW 900 | 0.579 | 0.547 | 0.724 | 0.511 | 0.412 | – | – | – | – | – | – | – | – | – | – | 0.666 | 0.518 | 0.575 | 0.47 | 0.268
HOP-62 | 0.419 | 0.367 | 0.374 | 0.232 | 0.203 | 1.05 | 0.746 | 0.285 | 0.535 | 0.529 | 1.28 | 1.21 | 0.688 | 0.882 | 1.06 | 0.737 | 0.461 | 0.251 | 0.243 | 0.211
H3255 | 0.572 | 0.777 | 0.579 | 0.514 | 0.411 | 0.935 | 0.843 | 0.704 | 0.701 | 0.655 | 0.267 | 0.269 | 0.205 | 0.232 | 0.209 | 0.805 | 0.736 | 0.8 | 0.733 | 0.505
NCI-H1734 | 0.255 | 0.243 | 0.216 | 0.203 | 0.205 | 0.91 | 0.851 | – | 0.859 | 1.02 | 1.01 | 1.01 | – | 1.02 | 1.08 | 0.476 | 0.451 | – | 0.509 | 0.369
SK-MES-1 | 0.955 | 0.921 | 0.745 | 0.466 | 0.361 | – | – | – | – | – | 0.451 | 0.427 | 0.447 | 0.454 | 0.428 | – | – | – | – | –
NCI-H1792 | – | – | – | – | – | 0.784 | 0.977 | 0.835 | – | 0.889 | 0.588 | 0.96 | 0.8 | – | 0.672 | 0.682 | 0.552 | 0.24 | 0.26 | 0.133
EKVX | 0.387 | 0.397 | 0.335 | 0.227 | 0.26 | 1.05 | 0.79 | 0.946 | 1.04 | 0.972 | 0.221 | 0.148 | 0.156 | 0.188 | 0.167 | 0.653 | 0.712 | 0.583 | 0.442 | 0.769
EPLC-272H | 0.207 | 0.203 | 0.212 | 0.149 | 0.266 | 0.959 | 0.704 | – | 0.918 | 0.873 | 0.979 | 0.819 | – | 0.995 | 0.883 | 0.223 | 0.242 | 0.175 | 0.17 | 0.225
LK-2 | 0.183 | 0.17 | 0.186 | 0.217 | 0.184 | – | – | – | – | – | – | 0.568 | – | 0.756 | 1.03 | 0.347 | 0.544 | 0.288 | 0.259 | 0.12
CAL-12T | 0.275 | 0.273 | 0.196 | 0.199 | 0.202 | 0.904 | 0.882 | 0.945 | 1.08 | 1.04 | 0.652 | 0.625 | 0.574 | 0.717 | 0.839 | 0.642 | 0.61 | 0.619 | 0.536 | 0.483
NCI-H322M | 0.465 | 0.361 | 0.387 | 0.331 | 0.369 | 1.22 | 1.28 | 1.22 | 1.31 | 1.25 | 0.566 | 0.631 | 0.597 | 0.548 | 0.631 | 0.602 | 0.436 | 0.482 | 0.414 | 0.425
NCI-H1650 | 0.422 | 0.434 | 0.397 | 0.374 | 0.23 | 0.189 | 0.19 | 0.2 | 0.19 | 0.222 | 0.854 | 0.793 | 0.574 | 0.768 | 0.842 | – | – | – | – | –
NCI-H2342 | 0.488 | 0.435 | – | 0.516 | 0.492 | – | – | – | – | – | – | – | – | – | – | 0.487 | 0.437 | 0.318 | 0.411 | 0.559
SW 1573 | 0.179 | 0.147 | 0.191 | 0.129 | 0.143 | 1.02 | 0.904 | 1.11 | 1.11 | 1 | 1.17 | 0.905 | 0.921 | 1.07 | 1.18 | – | – | – | – | –
NCI-H2405 | 0.695 | 0.687 | 0.664 | 0.497 | 0.468 | 0.997 | 0.874 | – | 0.892 | 1 | 1.03 | 1.02 | 0.749 | 1.06 | 1.03 | 0.566 | 0.616 | 0.425 | – | 0.401
LCLC-103H | 0.495 | 0.451 | 0.417 | 0.406 | 0.35 | 0.951 | 0.984 | 0.994 | 1.22 | 1.11 | – | – | – | – | – | 0.835 | 0.69 | 0.611 | 0.758 | 0.644
HCC-44 | 0.897 | 0.519 | 0.801 | 0.594 | 0.228 | 0.888 | 0.8 | 0.858 | 0.756 | 0.847 | 0.912 | 0.963 | 0.928 | 0.834 | 0.9 | 0.958 | 1.07 | 1.2 | 1.31 | 1.05
RERF-LC-KJ | 0.493 | 0.545 | 0.539 | 0.509 | 0.387 | 1.24 | 1.11 | 0.994 | 0.958 | 0.974 | 0.984 | 0.813 | 0.821 | 0.7 | 0.752 | 0.853 | 0.909 | 0.674 | 0.807 | 0.814
